Tests used:
[1] = Procedure for determining photostability (bleaching in vitro, continuous 785 nm irradiation); type: physicochemical
Protocol: 4C): Bleaching in vitro: Capillaries filled with 2.5 μM solutions in serum were continuously irradiated using a 785 nm laser (100 mW/cm^2) and frames were acquired for 20 minutes. Bleaching kinetics were extracted by analyzing the mean counts in an ROI overtime
Imaging was performed on a custom-built setup. LUMICS laser unit LU0785DLU250-S70AN03 (25 W) 785 nm″ was used for excitation. Laser was externally controlled using a LUMICS laser diode control system. Laser output was coupled in a 4×1 fan-out fiber-optic bundle (THORLABS BF46LSO1) of 600 μm core diameter for each optical path. The output from the fiber was fixed in an excitation cube (THORLABS KCB1EC/M), reflected off of a mirror (THORLABS BBE1-E03), and passed through a positive achromat (THORLABS AC254-050-B), SP filter (THORLABS FESH800) and an engineered diffuser (THORLABS ED1-S20-MD or ED1-S50-MD) to provide uniform illumination over the working area. In a typical experiment, the excitation flux in the field of view was adjusted to be close to 100 mWcm^−2. Power density was determined using a THORLABS energy meter console PM100D in combination with a THORLABS S130C sensor (measurement uncertainty of ±3%). The working area was covered by blackout fabric (THORLABS BK5). Emitted light was directed through two filters (THORLABS FELH800) screwed onto a EDMUND OPTICS Acktar Hexa-Black 25 mm noise reduction extension tube, via a C-mount camera lens (NAVITAR SWIR-35) onto an NIR-camera (PCO Edge 4.2 or Prime BSI). The software μManager was used to externally control the camera. The assembly was partially enclosed to avoid excess light while enabling manipulation of the field of view during operation.
For each dye (conjugate), solutions in H2O and FBS with an OD (785 nm)<1.0 in a 1 cm cuvette (HELLMA 115B-QS) were prepared. […] In order to be able to make useful comparison between different samples and experiments, the time axis was converted into a number of absorbance events by multiplication with the “absorptions per molecule per second”.

MDA-MB-468 cells = experiment: In vivo distribution of NIR-fluorescent Panitumumab conjugates in tumor bearing mice; conditions: 24 hrs after intravenous injection; 3 μg or 100 μg dose
Text: FIG. 5: Comparing Pan-sNIR (NIR-fluorescent Panitumumab) and Pan-IRDye800CW in tumor bearing mice post intraveneous injection. Mice were generated by subcutaneous implantation of MDA-MB-468 cells.

Row | more photostable than NIR, IRDye®8000W ([1]; fetal bovine serum (FBS)) | more stable than ICG ([1]; fetal bovine serum (FBS)) | bleaching slower than NIR, ICG and IRDye®8000W ([1]; water) | Molecule | tumor signal than/over the liver (MDA-MB-468 cells)
1 | 2.5 times | 1.6 times | 3.5 times | C#CCCCCNC(=O)C(=C\C=C\C1=[N+](CCCCS(=O)(=O)[O-])c2ccc(S(=O)(=O)[O-])cc2C1(C)C)/C=C/C=C1/N(CCCCS(=O)(=O)[O-])c2ccc(S(=O)(=O)[O-])cc2C1(C)C.[Na+].[Na+].[Na+] [sNIR, sodium 2-((1E,3Z,5E)-7-((E)-3,3-dimethyl-5-sulfonato-1-(4-sulfonatobutyl)indolin-2-ylidene)-4-(hex-5-yn-1-ylcarbamoyl)hepta-1,3,5-trien-1-yl)-3,3-dimethyl-1-(4-sulfonatobutyl)-3H-indol-1-ium-5-sulfonate] | –
2 | – | – | – | Pan-8000W: Panitumumab-IRDye800, prepared in a similar fashion [reference compound] | 1.4-1.8 ×

From patent US20260117070A1, “NEAR-INFRARED FLUORESCENT HEPTAMETHINE DYE CONJUGATES WITH FAVORABLE BLEACHING PROPERTIES” (HELMHOLTZ ZENTRUM MÜNCHEN DEUTSCHES FORSCHUNGSZENTRUM FÜR …, priority 2022, published 2026)
